Test results taken from US7361263B2, “Water treatment apparatus and method” (Sanyo Electric Co., Ltd., priority 2002, dated 2008).
≈ marks a conversion by molar mass, not a printed value. Where a name gives a salt, the structure may show the parent alone. Read-outs that look alike come from different tables or passages of the source. Each block holds one molecule with its values, some of them ahead of it.

Key:
[1] = Mutagenicity test (umu-test); assay type: cell-based
Procedure: The test was conducted according to the instruction manual included in the kit of “Umu-test” from Japan Immunoresearch Laboratories Co., Ltd.

[2] = test system: Staphylococcus aureus (staphylococcus bacteria) FDA 209P; assay: Test of antibacterial activity of epirubicin hydrochloride (MIC, small amount broth dilution); assay type: cell-based; conditions: for MIC: Staphylococcus aureus, FDA209P, read-out: minimum inhibitory concentration (MIC)
Procedure: (§1) The pharmaceutical stock solution disclosed in the standard method was replaced with the samples of the present example for testing. As the culture medium for measuring sensitivity, Cation Supplemented Mueller-Hinton Broth: CSMHB (obtained from EIKEN CHEMICAL CO., LTD.) was employed. This CSMHB was poured 90 μl each into a U-shaped bottom 96-well microplate. Samples taken 0, 2, 4 and 6 hours from initiation of electrolysis described in the above 2 were prepared. A diluted solution of respective samples was prepared in accordance with the standard method. […] The bacilli used in the present example were identical to the two types of bacillus employed in Example 1, i.e. Staphylococcus aureus (staphylococcus bacteria) FDA […] and Escherichia coli (coliform bacillus) NIHJ JC-2. […] This solution was inoculated approximately 0.005 ml in each well of the plate set forth above within 15 minutes from preparation of the solution including bacillus. A medium not containing the agent was poured into 1-2-wells as the control of the development of bacillus. Cultivation was conducted for 18-24 hours at 35° C.

[3] = test system: Escherichia coli (coliform bacillus) NIHJ JC-2; assay: as above; assay type: cell-based; conditions: read-out: minimum inhibitory concentration (MIC)
Procedure: as §1

[4] = Cytotoxicity (CC50) test, WST-8; assay type: cell-based, human; conditions: human; electrolyzing time 0 hours; Molt-4 cells, cultured three days
Text: (§2) For the measurement of the number of cells, tetrazolium salt WST-8 (Cell Counting Kit-8 available as a kit) was employed as the chromophone. The basic principle of the cytotoxicity (CC50) test is set forth below. WST-8 is reduced by intracellular dehydrogenation enzyme to produce soluble formazan. Since the number of cells and the amount of generated formazan is linearly proportional, the number of cells can be readily measured by directly measuring the absorbancy of formazan at 450 nm. The specific procedure for measurement is set forth below. 180 μl of a culture medium was introduced into each of the wells in the range of rows A-D and columns 3-10 in a 96-well flat microtiter plate for diluting the agent. 240 μl of the sample taken at 0 hours from initiation of electrolysis was added to the well of row A, column 2 in the microtiter plate. 240 μl of the sample taken 2 hours from initiation of electrolysis was added to the well of row B, column 2. 240 μl of the sample taken 4 hours from initiation of electrolysis was added to the well of row C, column 2. 240 μl of the sample taken 6 hours from initiation of electrolysis was added to the well of row D, column 2. To produce respective columns of sample dilutions, samples of 60 μl each was taken from the above-described samples of 240 μl. These samples of 60 μl were sequentially added to the right side well to be sufficiently pipeted. This was conducted up to column 10. Two of U-bottom 96-well microtiter plates for cultivation were prepared, and 200 μl of PBS was applied to all the side-most wells. 100 μl of culture medium was introduced into each of the wells of rows B-G, columns 2-9. 150 μl of culture medium was introduced into the wells of columns 10 and 11. Then, 50 μl of cell suspension solution prepared to 5×10^6 cell/ml was introduced into each of the wells of rows B-G, columns 2-9 and column 11. The wells of column 10 were absent of cells. […] Then, the O.D. was measured at 450 nm and 620 nm using a microplate reader.

[5] = Gas chromatograph evaluation of decomposition of glutaral by electrolysis; assay type: physicochemical; conditions: six hours from initiation of electrolysis
[6] = test system: Escherichia coli (coliform bacillus) NIHJ JC-2; assay: Sterilizing activity test of glutaral (MIC, small amount broth dilution, 60 minutes contact); assay type: cell-based
Procedure: (§3) The sterilizing activity of glutaral was evaluated based on MIC measurement by a small amount broth dilution method, which is the standard method of the Japanese Society of Chemotherapy. In the present example, the presence of bacillus by the bacterial number of survivals after a solution including bacillus was brought into contact with glutaral for a predetermined period of time (60 minutes) taking into account the fact that sterilization is neutralized when glutaral is mixed with the culture medium. The pharmaceutical stock solution disclosed in the standard method was replaced with the sample of the present example for testing. As the culture medium for measuring sensitivity, Cation Supplemented Mueller-Hinton Broth: CSMHB (obtained from EIKEN CHEMICAL CO., LTD.) was used. This CSMHB was dividedly-poured 90 μl each into a U-shaped bottom 96-well microplate. This is called Plate 1. The samples taken 0, 2, 4 and 6 hours from initiation of electrolysis described in the above 1. were prepared. In accordance with the method of [Example 1] recited in the additional rule of the standard method, a diluted solution of sterilized phosphate buffer (PBS) was produced for each sample. In the present example, the test was carried out at 1⁄2 the scale cited in the standard method. The containing amount of glutaral in the first tube was approximately 1000 μg/ml titer. The PBS dilution was dividedly-poured 0.1 ml each into another U-shaped microplate. This is called plate 2. In the present example, Staphylococcus aureus (staphylococcus bacteria) […] and Escherichia coli (coliform bacillus) NIHJ JC-2 strain were employed as the bacilli for testing sensitivity. The bacillus to be tested on an agar media cultured overnight was suspended to 0.5 Mc Farland (approximately 10^8 CFU/ml) and diluted by ten times (approximately 10^7 CFU/ml) with sterilized physiologic saline as the solution including bacillus for inoculation. The water to be treated and the solution including bacillus were inoculated and mixed 0.01 ml each in each well of Plate 1 within 15 minutes from preparation of the solution including bacillus. In Plate 1, a culture medium not containing the agent was poured into 1-2 wells as the control of growth of bacillus. At an elapse of 60 minutes from the mixing, 10 μl of the solution of plate 2 was each introduced into the same well of Plate 1. Then, cultivation was conducted for 18 to 24 hours at 35° C. The criteria of Positive Growth (+) and Inhibited Growth (-) after cultivation was determined as set forth below. Positive growth (+) was accepted when cloudiness was identified by the naked eye or a precipitate of at least 1 mm in diameter, or when two or more masses of precipitate, even though the diameter thereof is below 1 mm, was identified. Inhibited growth (-) was accepted when cloudiness by the naked eye was not identified, or when only one precipitate with a diameter below 1 mm was identified.

[7] = test system: Staphylococcus aureus (staphylococcus bacteria) 209P; assay: as above; assay type: cell-based
Procedure: as §3

MOLT-4 cell = assay: Cytotoxicity (CC50) test, WST-8; assay type: cell-based, human
Text: as §2

[8] = 6 hours from initiation of electrolysis, calculated
[9] = electrolysis for 6 hours or more, from formula value

MIC ([2]; electrolyzing time 0 hours): 1.56 µg/mL
MIC ([2]; electrolyzing time 2 hours): 25 µg/mL
MIC ([2]; electrolyzing time 4 hours): > 200 µg/mL
MIC ([2]; electrolyzing time 6 hours): > 200 µg/mL
relative MIC value (MIC at 0 hour set as 1) ([2]; electrolyzing time 0 hours): 1
relative MIC value (MIC at 0 hour set as 1) ([2]; electrolyzing time 2 hours): 1/16
MIC ([3]; NIHJJC2, electrolyzing time 0 hours): > 200 µg/mL
MIC ([3]; NIHJJC2, electrolyzing time 2 hours): > 200 µg/mL
MIC ([3]; NIHJJC2, electrolyzing time 4 hours): > 200 µg/mL
MIC ([3]; NIHJJC2, electrolyzing time 6 hours): > 200 µg/mL
SMILES: COc1cccc2c1C(=O)c1c(O)c3c(c(O)c1C2=O)C[C@@](O)(C(=O)CO)C[C@@H]3O[C@H]1C[C@H](N)[C@@H](O)[C@H](C)O1 [epirubicin hydrochloride]
concentration of the tube showing the mutagenicity induction level (fifth tube) ([1]; 0 hours from initiation of electrolysis): 24.7 μ/ml
umu-test absorbancy of the first tube (O.D.620 nm) ([1]; at all of 0, 2, 4 and 6 hours from initiation of electrolysis): exceeded 0.2
umu-test result (positivity / negativity) ([1]; at all of 0, 2, 4 and 6 hours from initiation of electrolysis, cut off value approximately 0.18): positivity
mutagenicity after the electrolytic process relative to before ([1]; lines diluted by three times, 1/3^4): 1/81
CC50 at 3 days [4]: 0.066 µg/mL

GC peak area (RT 3.14 minutes) relative to sample of 0 hours [5]: 1/25
SMILES: O=CCCCC=O [glutaral]
minimum inhibitor concentration obtained from approximation formula 2 [6, 8]: 4600 µg/mL (≈ 45.9 mM)
minimum inhibitor concentration relative to before electrolysis [6, 9]: approximately 1/37
minimum inhibitor concentration ([6]; electrolyzing time 0 hours): 31.25 µg/mL (≈ 0.312 mM)
relative value of the minimum inhibitor concentration (when preceding electrolysis is 1) ([6]; electrolyzing time 0 hours): 1
minimum inhibitor concentration ([6]; electrolyzing time 2 hours): 125 µg/mL (≈ 1.25 mM)
relative value of the minimum inhibitor concentration (when preceding electrolysis is 1) ([6]; electrolyzing time 2 hours): ¼
minimum inhibitor concentration ([6]; electrolyzing time 4 hours): >1000 µg/mL
relative value of the minimum inhibitor concentration (when preceding electrolysis is 1) ([6]; electrolyzing time 4 hours): < 1/32
minimum inhibitor concentration ([6]; electrolyzing time 6 hours): >1000 µg/mL
relative value of the minimum inhibitor concentration (when preceding electrolysis is 1) ([6]; electrolyzing time 6 hours): < 1/32
minimum inhibitor concentration obtained from approximation formula 1 [7, 8]: 1150 µg/mL (≈ 11.5 mM)
minimum inhibitor concentration relative to before electrolysis [7, 9]: approximately 1/18
minimum inhibitor concentration ([7]; electrolyzing time 0 hours): 62.5 µg/mL (≈ 0.624 mM)
relative value of the minimum inhibitor concentration (when preceding electrolysis is 1) ([7]; electrolyzing time 0 hours): 1
minimum inhibitor concentration ([7]; electrolyzing time 2 hours): 125 µg/mL (≈ 1.25 mM)
relative value of the minimum inhibitor concentration (when preceding electrolysis is 1) ([7]; electrolyzing time 2 hours): ½
minimum inhibitor concentration ([7]; electrolyzing time 4 hours): 500 µg/mL (≈ 4.99 mM)
relative value of the minimum inhibitor concentration (when preceding electrolysis is 1) ([7]; electrolyzing time 4 hours): ⅛
minimum inhibitor concentration ([7]; electrolyzing time 6 hours): >1000 µg/mL
relative value of the minimum inhibitor concentration (when preceding electrolysis is 1) ([7]; electrolyzing time 6 hours): < 1/16

SMILES: OCl [hypochlorous acid]
contribution to cytotoxicity (MOLT-4 cell): almost no contribution to cytotoxicity

SMILES: O=S([O-])([O-])=S.[Na+].[Na+] [sodium thiosulfate]
contribution to cytotoxicity (MOLT-4 cell; in the electrolyzed samples, Molt-4 cells): almost no contribution to cytotoxicity
